Measurements published in patent US20220226470A1, “ANTIBODIES AND METHODS FOR TREATMENT OF INFLUENZA A INFECTION” (HUMABS BIOMED SA, priority 2019, published 2022).

What was measured:
Experiment in all cases: microbe, parasite or virus in culture
Type in all cases: cell-based
H3N2 and H1N1 strains = settings: Influenza A virus, MDCK, read-out: relative calculated IC50
H3N2 virus = settings: Influenza A virus, H3N2, MDCK
H1N1 virus = settings: Influenza A virus, H1N1, MDCK

Compound	IC50 (H3N2 and H1N1 strains) [nM]	IC50 (H3N2 virus) [nM]	IC50 (H1N1 virus) [nM]
CC(=O)N[C@H]1[C@H]([C@H](O)[C@H](O)CO)OC(C(=O)O)=C[C@@H]1N=C(N)N [zanamivir, reference compound]	10.7 to 13.7	–	–
CCOC(=O)C1=C[C@@H](OC(CC)CC)[C@H](NC(C)=O)[C@@H](N)C1 [oseltamivir, reference compound]	–	7	9.1
